Literature values, collected in US6471968B1, “Multifunctional nanodevice platform” (Regents of the University of Michigan, priority 2000, dated 2002).

System: solid tumor models
Conditions: solid tumor models for which cisplatin has no effect

Question: With `N.N.[Cl][Pt][Cl]` [cisplatin] as the compound, how does the “in vivo activity in solid tumor models” value read?
Answer: The value was “no effect”.
